For assay [1], the target named is T1, Serine/threonine-protein kinase tousled-like 1 (Homo sapiens) (UniProt Q9UKI8).
T1 sequence (whole entry): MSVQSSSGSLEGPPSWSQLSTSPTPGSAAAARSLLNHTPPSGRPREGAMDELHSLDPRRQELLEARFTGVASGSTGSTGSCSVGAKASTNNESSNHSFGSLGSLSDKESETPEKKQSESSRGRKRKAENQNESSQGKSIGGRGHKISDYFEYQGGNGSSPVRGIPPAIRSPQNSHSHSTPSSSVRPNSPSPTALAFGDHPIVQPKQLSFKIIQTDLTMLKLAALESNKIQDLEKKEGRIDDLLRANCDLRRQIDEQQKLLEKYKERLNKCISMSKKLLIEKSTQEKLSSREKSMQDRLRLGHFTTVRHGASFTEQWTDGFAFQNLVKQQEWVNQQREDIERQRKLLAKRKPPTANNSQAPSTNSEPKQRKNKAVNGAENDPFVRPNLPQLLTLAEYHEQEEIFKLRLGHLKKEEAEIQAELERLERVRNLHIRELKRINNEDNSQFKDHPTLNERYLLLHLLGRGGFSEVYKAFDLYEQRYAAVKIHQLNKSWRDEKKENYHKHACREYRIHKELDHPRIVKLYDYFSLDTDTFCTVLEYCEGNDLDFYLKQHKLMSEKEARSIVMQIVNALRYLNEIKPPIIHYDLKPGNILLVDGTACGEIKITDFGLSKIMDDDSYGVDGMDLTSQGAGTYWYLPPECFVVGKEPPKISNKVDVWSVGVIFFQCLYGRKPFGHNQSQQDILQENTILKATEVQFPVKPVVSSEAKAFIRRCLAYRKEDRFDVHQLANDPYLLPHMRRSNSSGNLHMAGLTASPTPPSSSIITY
The assay is described as follows: Selectivity interaction (ActivX KiNativ screen (kinase selectivity in THP-1 cell lysates)) EUB0000639a TLK1. Format: subcellular. Conditions: lysate, at 0.01 µM.

Assay [2] has as its target T2, Inhibitor of nuclear factor kappa-B kinase subunit alpha (Homo sapiens) (UniProt O15111).
T2 sequence (whole entry): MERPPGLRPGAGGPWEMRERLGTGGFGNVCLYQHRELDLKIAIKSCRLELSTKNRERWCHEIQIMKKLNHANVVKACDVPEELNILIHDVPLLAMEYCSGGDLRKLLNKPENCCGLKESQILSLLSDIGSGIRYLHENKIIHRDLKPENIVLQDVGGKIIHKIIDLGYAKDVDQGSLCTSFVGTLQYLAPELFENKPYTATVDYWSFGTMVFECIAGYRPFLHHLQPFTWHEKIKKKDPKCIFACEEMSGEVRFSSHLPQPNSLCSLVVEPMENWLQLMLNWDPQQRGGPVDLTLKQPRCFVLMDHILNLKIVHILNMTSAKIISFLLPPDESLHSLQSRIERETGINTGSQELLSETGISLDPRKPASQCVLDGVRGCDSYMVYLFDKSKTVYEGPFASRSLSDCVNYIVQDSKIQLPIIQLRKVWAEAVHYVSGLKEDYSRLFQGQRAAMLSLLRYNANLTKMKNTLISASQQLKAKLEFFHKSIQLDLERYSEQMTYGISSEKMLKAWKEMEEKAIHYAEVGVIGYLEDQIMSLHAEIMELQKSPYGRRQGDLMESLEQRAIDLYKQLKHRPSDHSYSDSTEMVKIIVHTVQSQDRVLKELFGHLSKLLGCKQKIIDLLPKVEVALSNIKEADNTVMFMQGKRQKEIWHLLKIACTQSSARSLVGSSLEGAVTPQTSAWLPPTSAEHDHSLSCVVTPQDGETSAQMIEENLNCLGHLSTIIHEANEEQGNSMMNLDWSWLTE
The assay is described as follows: Selectivity interaction (KinomeScan (DiscoverX)) EUB0001049a CHUK. Conditions: at 1 µM.

Assay [3] deals with Beta-2 adrenergic receptor (Homo sapiens, UniProt P07550). As to the kind of experiment: Selectivity interaction (Panel of kinases, GPCRs, ion channels and transporters (enzymatic assay)) EUB0000223bCl ADRB2.
Assay [4] deals with T3, Tyrosine-protein kinase Tec (Homo sapiens) (UniProt P42680).
T3 sequence (whole entry): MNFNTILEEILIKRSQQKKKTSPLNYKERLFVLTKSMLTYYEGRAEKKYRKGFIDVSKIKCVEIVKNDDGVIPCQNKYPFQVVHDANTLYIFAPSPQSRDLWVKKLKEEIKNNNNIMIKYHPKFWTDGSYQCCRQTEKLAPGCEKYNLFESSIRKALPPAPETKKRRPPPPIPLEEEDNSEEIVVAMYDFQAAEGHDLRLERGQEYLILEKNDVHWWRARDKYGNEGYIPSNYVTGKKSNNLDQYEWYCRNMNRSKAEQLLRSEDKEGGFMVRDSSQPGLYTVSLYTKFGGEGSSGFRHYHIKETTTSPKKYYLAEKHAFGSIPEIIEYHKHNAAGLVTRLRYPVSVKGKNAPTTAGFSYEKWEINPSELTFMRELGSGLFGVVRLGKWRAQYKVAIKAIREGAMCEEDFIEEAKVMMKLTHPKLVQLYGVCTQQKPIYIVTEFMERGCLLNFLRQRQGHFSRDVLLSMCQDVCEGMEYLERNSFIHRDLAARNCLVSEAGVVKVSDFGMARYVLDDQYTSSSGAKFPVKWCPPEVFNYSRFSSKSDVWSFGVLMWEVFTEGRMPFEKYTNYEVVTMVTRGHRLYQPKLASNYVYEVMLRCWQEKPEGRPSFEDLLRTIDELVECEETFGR
The assay is described as follows: Selectivity interaction (KinomeScan (DiscoverX)) EUB0000092b TEC. The note with it: at 10 µM.

The target of assay [5] is T4, Activin receptor type-1B (Homo sapiens) (UniProt P36896).
T4 sequence (whole entry): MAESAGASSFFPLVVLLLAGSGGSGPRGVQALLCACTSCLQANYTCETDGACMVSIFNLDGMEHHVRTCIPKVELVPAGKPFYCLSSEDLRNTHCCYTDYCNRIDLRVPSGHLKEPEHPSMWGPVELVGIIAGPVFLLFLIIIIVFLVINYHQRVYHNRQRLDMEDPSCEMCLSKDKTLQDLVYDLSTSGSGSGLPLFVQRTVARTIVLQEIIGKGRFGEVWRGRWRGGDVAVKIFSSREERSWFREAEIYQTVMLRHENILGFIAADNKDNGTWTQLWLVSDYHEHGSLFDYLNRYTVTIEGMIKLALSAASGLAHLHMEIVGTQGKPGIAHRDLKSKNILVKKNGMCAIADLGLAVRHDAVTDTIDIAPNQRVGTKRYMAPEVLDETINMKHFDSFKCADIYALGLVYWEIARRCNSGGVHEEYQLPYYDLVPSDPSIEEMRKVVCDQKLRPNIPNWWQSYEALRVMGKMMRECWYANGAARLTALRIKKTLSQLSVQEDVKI
The assay is described as follows: Selectivity interaction (KinomeScan (DiscoverX)) EUB0000045b ACVR1B.

Chain of Beta-2 adrenergic receptor (P07550 whole entry, looked up): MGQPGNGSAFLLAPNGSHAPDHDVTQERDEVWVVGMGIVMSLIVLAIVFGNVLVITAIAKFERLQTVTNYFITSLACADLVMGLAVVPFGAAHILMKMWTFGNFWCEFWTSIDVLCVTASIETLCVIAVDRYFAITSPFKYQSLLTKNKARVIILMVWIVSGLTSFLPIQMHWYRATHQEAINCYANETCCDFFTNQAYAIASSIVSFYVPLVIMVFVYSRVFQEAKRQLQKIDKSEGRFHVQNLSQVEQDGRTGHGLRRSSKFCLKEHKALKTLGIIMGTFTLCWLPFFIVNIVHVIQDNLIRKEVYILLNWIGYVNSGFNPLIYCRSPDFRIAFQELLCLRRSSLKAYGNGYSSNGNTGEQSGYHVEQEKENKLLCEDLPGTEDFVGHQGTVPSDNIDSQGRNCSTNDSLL

`CC[C@@H]1[C@H](F)C(=O)N[C@@H]1COc1nccc2cc(C(N)=O)c(OC)cc12` [ZIMLOVISERTIB]: the % of inhibition in assay [1] was 1.9%.

In turn, `COc1cc(Nc2nc(C)cc(-c3cnn4nc(OC)ccc34)n2)cc(C(F)(F)F)c1` yielded a % of control in assay [2] of 95%.

On to `COc1cc(C(=O)N2CC[C@@H](O)[C@@H](N)C2)cc2nc(-c3cc4ccccc4n3CC3CC3)n(C)c12`, for which the pXC50 in assay [3] was less than 4.5 M.

In assay [4], `CCC(=O)N1CCN(c2ccc(-n3c(=O)ccc4cnc5ccc(-c6cnc7ccccc7c6)cc5c43)cc2C(F)(F)F)CC1` gave a % of control of 99%.

On to `C=CC(=O)Nc1cc(-n2c(=O)ccc3cnc4ccc(-c5ccc(NS(C)(=O)=O)cc5)cc4c32)ccc1C`, for which the % of control stood at 84% in assay [5] (at 1 µM) and 100% in assay [5] (at 10 µM).
